Consider 31 compounds from patent US20020026053A1, “Novel 3-(substituted) -2- indolinones compounds and use thereof as inhibitors of protein kinase activity” (priority 1997, published 2002).

Structures are written as SMILES.

For one test, the system named is PDGF-R. As to the kind of experiment: PDGF-R Assay (cellular ELISA, U1242 cells). It is filed as cell-based. Also noted: concentration or dose not given beside the values. The settings on record: protocol P.119. The gist of the method:
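Cellular ELISA for receptor autophosphorylation: after 2 hr test-compound treatment of serum-free U1242 cells at 37°C, ligand is added for 5–10 min, cells are lysed (HNTG) and receptor captured by specific antibody. Anti-phosphotyrosine plus secondary antibody with ABTS colour read at 410/630 nm, compared with compound-free control cells.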
In general terms: ELISA stands for enzyme-linked immunosorbent assay.

The target in another test is T1, EGFR (Homo sapiens, UniProt P00533).
T1 construct: endogenous in cells; host or cells: A431 cells (lysate, captured with SUMO1 anti-EGFR antibody)
T1 sequence (P00533 25-1210): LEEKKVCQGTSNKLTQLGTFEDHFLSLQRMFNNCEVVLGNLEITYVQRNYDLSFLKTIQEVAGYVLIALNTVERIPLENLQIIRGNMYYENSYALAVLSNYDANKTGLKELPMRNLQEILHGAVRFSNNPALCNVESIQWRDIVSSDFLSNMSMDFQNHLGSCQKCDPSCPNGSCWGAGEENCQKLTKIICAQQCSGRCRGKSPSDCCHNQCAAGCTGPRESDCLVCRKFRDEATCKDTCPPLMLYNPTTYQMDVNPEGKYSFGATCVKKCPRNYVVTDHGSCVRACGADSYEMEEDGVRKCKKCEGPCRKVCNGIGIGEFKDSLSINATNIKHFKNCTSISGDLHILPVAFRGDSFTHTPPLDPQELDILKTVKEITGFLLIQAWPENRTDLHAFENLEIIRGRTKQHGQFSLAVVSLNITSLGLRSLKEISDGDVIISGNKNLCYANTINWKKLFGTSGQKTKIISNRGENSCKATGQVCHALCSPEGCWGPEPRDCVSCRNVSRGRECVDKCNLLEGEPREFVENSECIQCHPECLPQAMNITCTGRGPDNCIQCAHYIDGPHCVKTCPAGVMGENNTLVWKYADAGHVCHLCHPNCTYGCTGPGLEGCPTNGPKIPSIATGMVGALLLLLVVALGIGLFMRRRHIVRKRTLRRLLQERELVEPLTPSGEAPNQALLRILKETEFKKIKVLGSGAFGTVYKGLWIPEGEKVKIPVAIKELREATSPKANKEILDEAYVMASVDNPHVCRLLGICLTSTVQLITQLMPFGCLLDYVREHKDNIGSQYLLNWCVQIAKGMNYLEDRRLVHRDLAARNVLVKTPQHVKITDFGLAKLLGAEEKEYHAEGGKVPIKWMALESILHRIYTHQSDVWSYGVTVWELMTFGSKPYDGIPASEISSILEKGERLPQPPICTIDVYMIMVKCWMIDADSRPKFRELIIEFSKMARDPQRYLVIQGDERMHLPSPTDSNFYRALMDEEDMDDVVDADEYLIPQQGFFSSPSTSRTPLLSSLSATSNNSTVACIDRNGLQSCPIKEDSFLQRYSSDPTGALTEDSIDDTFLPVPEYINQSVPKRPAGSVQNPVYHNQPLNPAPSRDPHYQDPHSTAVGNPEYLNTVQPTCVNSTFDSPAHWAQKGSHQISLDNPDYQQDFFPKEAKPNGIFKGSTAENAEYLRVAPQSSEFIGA
The experiment in a line: Biochemical EGFR Assay. Also noted: concentration or dose not given beside the values. The settings on record: protocol P.167. The gist of the method: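 Readout is ABTS absorbance at 410 nm after anti-phosphotyrosine and HRP-antibody detection of EGFR autophosphorylation. The kinase was immunocaptured from A431 lysate, exposed 30 min to test compound diluted 1:10 in TBS, then phosphorylated for 5 min with ATP/MnCl2 before an EDTA stop.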

Consider `COc1ccc(C=C2C(=O)Nc3ccc(S(=O)(=O)Nc4ccc(C(F)(F)F)cc4)cc32)cc1F` [10737/E06], for which, in the test on PDGF-R, the “PDGF Kinase % Inhibition (P.119)” value was 26.5%. The “Biochem EGFR % Inhibition (P.167)” value at EGFR was −14.1%.
As to `Cc1ccc(C)c(C=C2C(=O)Nc3ccc(S(=O)(=O)Nc4ccc(C(F)(F)F)cc4)cc32)c1` [10737/E07], the “PDGF Kinase % Inhibition (P.119)” value in the test with PDGF-R stood at 28.1%. Moreover, the “Biochem EGFR % Inhibition (P.167)” value on EGFR was −12.3%.
On to `O=C1Nc2ccc(S(=O)(=O)Nc3ccc(C(F)(F)F)cc3)cc2C1=Cc1ccc2ccccc2c1` [10737/E08], for which the “PDGF Kinase % Inhibition (P.119)” value in the test with PDGF-R was 35.6%. For the same compound, the “Biochem EGFR % Inhibition (P.167)” value on EGFR is −7.8%.
For the compound `O=C1Nc2ccc(S(=O)(=O)Nc3ccc(C(F)(F)F)cc3)cc2C1=Cc1ccc(Oc2ccccc2)cc1` [10737/E09], in the test on PDGF-R, the “PDGF Kinase % Inhibition (P.119)” value stood at 25.7%. The “Biochem EGFR % Inhibition (P.167)” value on EGFR is on record as −0.7%.
Consider `CC(C)(C)c1ccc(Oc2cccc(C=C3C(=O)Nc4ccc(S(=O)(=O)Nc5ccc(C(F)(F)F)cc5)cc43)c2)cc1` [10737/E10], for which the “PDGF Kinase % Inhibition (P.119)” value in the test with PDGF-R turned out to be 30.9%. The “Biochem EGFR % Inhibition (P.167)” value at EGFR was −4.2%.
In the same order, the values of `O=C1Nc2ccc(S(=O)(=O)Nc3ccc(C(F)(F)F)cc3)cc2C1=Cc1cccc(Oc2cccc(C(F)(F)F)c2)c1` [10737/E11] are 38.0% and −33.4%.
Turning to `CCOc1ccc(C=C2C(=O)Nc3ccc(S(=O)(=O)N4CCOCC4)cc32)cc1` [10737/F02], the “PDGF Kinase % Inhibition (P.119)” value with PDGF-R came to 9.0%. For the same compound, the “Biochem EGFR % Inhibition (P.167)” value on EGFR is 21.4%.
Consider `Cc1ccc(C=C2C(=O)Nc3ccc(S(=O)(=O)N4CCOCC4)cc32)c(C)c1` [10737/F03], for which the “PDGF Kinase % Inhibition (P.119)” value in the test with PDGF-R is reported as 7.8%. In addition, the “Biochem EGFR % Inhibition (P.167)” value at EGFR is −3.1%.
With `O=C1Nc2ccc(S(=O)(=O)N3CCOCC3)cc2C1=Cc1cc(F)ccc1F` [10737/F04], the “PDGF Kinase % Inhibition (P.119)” value with PDGF-R was 3.8%. Moreover, the “Biochem EGFR % Inhibition (P.167)” value at EGFR is −23.3%.
As for `O=C1Nc2ccc(S(=O)(=O)N3CCOCC3)cc2C1=Cc1cccc(F)c1F` [10737/F05], in the test with PDGF-R, the “PDGF Kinase % Inhibition (P.119)” value was determined as 1.0%. Besides, at EGFR, the “Biochem EGFR % Inhibition (P.167)” value is recorded as −24.0%.
For `COc1ccc(C=C2C(=O)Nc3ccc(S(=O)(=O)N4CCOCC4)cc32)cc1F` [10737/F06] the same measures were 11.3% and −13.7%.
For `Cc1ccc(C)c(C=C2C(=O)Nc3ccc(S(=O)(=O)N4CCOCC4)cc32)c1` [10737/F07] the same measures were 12.9% and −25.5%.
For the compound `O=C1Nc2ccc(S(=O)(=O)N3CCOCC3)cc2C1=Cc1ccc2ccccc2c1` [10737/F08], the “PDGF Kinase % Inhibition (P.119)” value in the test on PDGF-R is 9.8%. Moreover, on EGFR, the “Biochem EGFR % Inhibition (P.167)” value is listed as 28.3%.
Take `O=C1Nc2ccc(S(=O)(=O)N3CCOCC3)cc2C1=Cc1ccc(Oc2ccccc2)cc1` [10737/F09]: the “PDGF Kinase % Inhibition (P.119)” value with PDGF-R is recorded as 9.8%. At EGFR, the “Biochem EGFR % Inhibition (P.167)” value amounted to 23.5%.
For `CC(C)(C)c1ccc(Oc2cccc(C=C3C(=O)Nc4ccc(S(=O)(=O)N5CCOCC5)cc43)c2)cc1` [10737/F10], in the test with PDGF-R, the “PDGF Kinase % Inhibition (P.119)” value is recorded as 11.0%. In addition, on EGFR, the “Biochem EGFR % Inhibition (P.167)” value was found to be 14.6%.
Take `O=C1Nc2ccc(S(=O)(=O)N3CCOCC3)cc2C1=Cc1cccc(Oc2cccc(C(F)(F)F)c2)c1` [10737/F11]: in the test with PDGF-R, the “PDGF Kinase % Inhibition (P.119)” value stood at 16.5%. Also, the “Biochem EGFR % Inhibition (P.167)” value on EGFR is −0.7%.
In the case of `CCOc1ccc(C=C2C(=O)Nc3ccc(CCCl)cc32)cc1` [10737/G02], the “PDGF Kinase % Inhibition (P.119)” value with PDGF-R is given as −5.8%. Besides, the “Biochem EGFR % Inhibition (P.167)” value at EGFR worked out at 12.4%.
As to `Cc1ccc(C=C2C(=O)Nc3ccc(CCCl)cc32)c(C)c1` [10737/G03], the “PDGF Kinase % Inhibition (P.119)” value with PDGF-R was determined as 21.7%. Besides, at EGFR, the “Biochem EGFR % Inhibition (P.167)” value was −0.5%.
On to `O=C1Nc2ccc(CCCl)cc2C1=Cc1cc(F)ccc1F` [10737/G04], for which the “PDGF Kinase % Inhibition (P.119)” value with PDGF-R is 12.1%. For the same compound, at EGFR, the “Biochem EGFR % Inhibition (P.167)” value was −19.3%.
On to `O=C1Nc2ccc(CCCl)cc2C1=Cc1cccc(F)c1F` [10737/G05], for which the “PDGF Kinase % Inhibition (P.119)” value in the test with PDGF-R is recorded as 16.1%. In addition, the “Biochem EGFR % Inhibition (P.167)” value on EGFR was −41.4%.
Take `COc1ccc(C=C2C(=O)Nc3ccc(CCCl)cc32)cc1F` [10737/G06]: the “PDGF Kinase % Inhibition (P.119)” value with PDGF-R is recorded as −10.2%. Besides, the “Biochem EGFR % Inhibition (P.167)” value on EGFR is −43.4%.
For the compound `Cc1ccc(C)c(C=C2C(=O)Nc3ccc(CCCl)cc32)c1` [10737/G07], the “PDGF Kinase % Inhibition (P.119)” value with PDGF-R is given as 24.1%. Moreover, the “Biochem EGFR % Inhibition (P.167)” value at EGFR is on record as −25.0%.
In the same order, the values of `O=C1Nc2ccc(CCCl)cc2C1=Cc1ccc2ccccc2c1` [10737/G08] are 13.7% and 30.8%.
In the case of `O=C1Nc2ccc(CCCl)cc2C1=Cc1ccc(Oc2ccccc2)cc1` [10737/G09], the “PDGF Kinase % Inhibition (P.119)” value with PDGF-R turned out to be 8.2%. Also, on EGFR, the “Biochem EGFR % Inhibition (P.167)” value is reported as 23.6%.
For `CC(C)(C)c1ccc(Oc2cccc(C=C3C(=O)Nc4ccc(CCCl)cc43)c2)cc1` [10737/G10] the same measures were −0.2% and 17.2%.
`O=C1Nc2ccc(CCCl)cc2C1=Cc1cccc(Oc2cccc(C(F)(F)F)c2)c1` [10737/G11]: the “PDGF Kinase % Inhibition (P.119)” value in the test on PDGF-R was 5.0%. Further, the “Biochem EGFR % Inhibition (P.167)” value on EGFR came out at 2.8%.
As for `CCOc1ccc(C=C2C(=O)Nc3c(Br)cc(Br)c(C)c32)cc1` [10737/H02], the “PDGF Kinase % Inhibition (P.119)” value with PDGF-R is recorded as −18.1%. In addition, the “Biochem EGFR % Inhibition (P.167)” value at EGFR is on record as −17.2%.
In the case of `Cc1ccc(C=C2C(=O)Nc3c(Br)cc(Br)c(C)c32)c(C)c1` [10737/H03], the “PDGF Kinase % Inhibition (P.119)” value in the test with PDGF-R was −21.3%. On EGFR, the “Biochem EGFR % Inhibition (P.167)” value is −22.6%.
For `Cc1c(Br)cc(Br)c2c1C(=Cc1cc(F)ccc1F)C(=O)N2` [10737/H04] the same measures were −21.3% and −17.6%.
Regarding `Cc1c(Br)cc(Br)c2c1C(=Cc1cccc(F)c1F)C(=O)N2` [10737/H05], in the test with PDGF-R, the “PDGF Kinase % Inhibition (P.119)” value is −6.2%. The “Biochem EGFR % Inhibition (P.167)” value at EGFR is −17.4%.
Consider `COc1ccc(C=C2C(=O)Nc3c(Br)cc(Br)c(C)c32)cc1F` [10737/H06], for which the “PDGF Kinase % Inhibition (P.119)” value in the test with PDGF-R is given as −1.8%. Besides, the “Biochem EGFR % Inhibition (P.167)” value at EGFR is recorded as −31.0%.
